Experimental data published in ChEMBL document CHEMBL5150000, “Insights on Dengue and Zika NS5 RNA-dependent RNA polymerase (RdRp) inhibitors” (Eur J Med Chem, 2021).

Experiments:
Dengue virus [1] = test: Antiviral activity against DENV; assay type: functional, organism-based
Zika virus = test: Antiviral activity against Zika virus; assay type: functional, organism-based
NS5 = NS5 (Zika virus, UniProt A0A143MHK7); test: Inhibition of Zika virus RNA-dependent RNA polymerase
dengue virus type 2 [2] = test: Antiviral activity against DENV-2 incubated for 72 hrs by MTT assay; assay type: functional, organism-based
[3] = Inhibition of DENV-3 full length NS5/RNA-dependent RNA polymerase; set-up: species or system dengue virus type 3
dengue virus type 1 [4] = test: Antiviral activity against DENV-1 NS5 infected in African green monkey Vero cells; assay type: functional, organism-based
dengue virus type 2 [5] = test: Antiviral activity against DENV-2 NS5 infected in African green monkey Vero cells; assay type: functional, organism-based
dengue virus type 3 [6] = test: Antiviral activity against DENV-3 NS5 infected in African green monkey Vero cells; assay type: functional, organism-based
dengue virus type 1 [7] = test: Antiviral activity against DENV-1 infected hamster BHK-21 cells assessed as reduction in viral replication incubated for 4 hrs; assay type: functional, organism-based
dengue virus type 2 [8] = test: Antiviral activity against DENV-2 infected hamster BHK-21 cells assessed as reduction in viral replication incubated for 4 hrs; assay type: functional, organism-based
dengue virus type 3 [9] = test: Antiviral activity against DENV-3 infected hamster BHK-21 cells assessed as reduction in viral replication incubated for 4 hrs; assay type: functional, organism-based
dengue virus type 4 [10] = test: Antiviral activity against DENV-4 infected hamster BHK-21 cells assessed as reduction in viral replication incubated for 4 hrs; assay type: functional, organism-based
dengue virus type 2 [11] = test: Antiviral activity against DENV-2 RNA-dependent RNA polymerase; assay type: functional, organism-based
[12] = Toxicity in rat assessed as animal survival at 15 to 30 mg/kg, iv measured for 7 days; assay type: organism-based; details: in vivo, dose 15-30 mg/kg, time 7 day, read-out: Activity
[13] = Inhibition of DENV RNA polymerase; set-up: species or system Dengue virus
[14] = Inhibition of DENV RNA-dependent RNA polymerase activity; set-up: species or system Dengue virus
dengue virus type 1 [15] = test: Antiviral activity against DENV-1 RNA-dependent RNA polymerase infected in African green monkey Vero cells assessed as reduction in viral replication incubated for 2 days by qRT-PCR analysis; assay type: functional, organism-based; details: 48 h
dengue virus type 2 [16] = test: Antiviral activity against DENV-2 RNA-dependent RNA polymerase infected in African green monkey Vero cells assessed as reduction in viral replication incubated for 2 days by qRT-PCR analysis; assay type: functional, organism-based; details: 48 h
dengue virus type 3 [17] = test: Antiviral activity against DENV-3 RNA-dependent RNA polymerase infected in African green monkey Vero cells assessed as reduction in viral replication incubated for 2 days by qRT-PCR analysis; assay type: functional, organism-based; details: 48 h
dengue virus type 4 [18] = test: Antiviral activity against DENV-4 RNA-dependent RNA polymerase infected in African green monkey Vero cells assessed as reduction in viral replication incubated for 2 days by qRT-PCR analysis; assay type: functional, organism-based; details: 48 h
THP-1 = test: Cytotoxicity against human THP-1 cells
HepG2 = test: Cytotoxicity against human HepG2 cells
dengue virus type 2 [19] = test: Antiviral activity against DENV-2; assay type: functional, organism-based
[20] = Binding affinity to DENV-2 RNA-dependent RNA polymerase assessed as dissociation constant using GTP as substrate; set-up: species or system dengue virus type 2
Dengue virus [21] = test: Antiviral activity DENV infected in African green monkey Vero 76 cells assessed as virus-induced cytopathic effect; assay type: functional, organism-based
[22] = Inhibition of Dengue virus RNA N7 methyltransferase
[23] = Inhibition of Zika virus RNA N7 methyltransferase

Sequence of NS5 (A0A143MHK7 whole entry): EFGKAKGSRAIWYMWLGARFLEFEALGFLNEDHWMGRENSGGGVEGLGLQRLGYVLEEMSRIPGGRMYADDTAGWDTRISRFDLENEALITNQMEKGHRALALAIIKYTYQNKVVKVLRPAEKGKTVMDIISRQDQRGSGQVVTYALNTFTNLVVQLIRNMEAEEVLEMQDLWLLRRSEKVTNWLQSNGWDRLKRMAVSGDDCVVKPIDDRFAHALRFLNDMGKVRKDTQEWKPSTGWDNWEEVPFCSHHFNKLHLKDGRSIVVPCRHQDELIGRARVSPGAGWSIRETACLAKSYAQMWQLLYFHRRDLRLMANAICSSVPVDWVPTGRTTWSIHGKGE

Nc1ncnc2c1c(-c1cc3ccccc3o1)cn2[C@@H]1O[C@H](CO)[C@@H](O)[C@H]1O
EC50 (Dengue virus [1]): 13 µM | EC50 (Zika virus): 2.2 µM | IC50 (NS5): 0.5 µM

CN[C@@H]1CC[C@@H]2CN(c3c(F)c(N)c4c(=O)c(C(=O)O)cn(C5CC5)c4c3F)C[C@@H]21
EC50 (dengue virus type 2 [2]): 9.2 µM

CC(=O)Oc1ccc2oc(=O)sc2c1
IC50 [3]: 287 µM | EC50 (dengue virus type 1 [4]): 29.5 µM | EC50 (dengue virus type 2 [5]): 6 µM | EC50 (dengue virus type 3 [6]): 29.4 µM

IVERMECTIN
IC50 (dengue virus type 1 [7]): 2.32 µM | IC50 (dengue virus type 2 [8]): 2.08 µM | IC50 (dengue virus type 3 [9]): 1.66 µM | IC50 (dengue virus type 4 [10]): 1.9 µM

CNC1CN(c2c(F)c(N)c3c(=O)c(C(=O)O)cn(C4CC4)c3c2Cl)CC1OC (configuration not stated)
EC50 (dengue virus type 2 [11]): 3.9 µM

C[C@@]1(O)[C@H](O)[C@@H](CO)O[C@H]1n1ccc(N)nc1=O
survival at 168 h [12]: 60% | IC50 [13]: 11.2 µM | IC50 [14]: 19.3 µM | EC50 (dengue virus type 1 [15]): 2.9 µM | EC50 (dengue virus type 2 [16]): 2.8 µM | EC50 (dengue virus type 3 [17]): 2.4 µM | EC50 (dengue virus type 4 [18]): 2.6 µM

OC[C@H]1O[C@@H](n2c3ccc(Cl)cc3c3c(-c4ccco4)ncnc32)[C@H](O)[C@@H]1O
CC50 (THP-1): 1.56 µM | CC50 (HepG2): 0.17 µM

CN1CCN(c2ccc(C(=O)Nc3n[nH]c4ccc(Cc5cc(F)cc(F)c5)cc34)c(NC3CCOCC3)c2)CC1 [ENTRECTINIB]
EC50 (dengue virus type 2 [19]): 2.43 µM | Kd [20]: 166 µM

COc1nc(N)ncc1-c1cn(COCCO)cn1
EC50 (Dengue virus [21]): 0.057 µM | IC50 [22]: 8.4 µM | IC50 [23]: 1.7 µM
